According to patent US9233965B2, “3,4-dihydropyrrolo[1,2-A]pyrazine-2,8(1H)-dicarboxamide derivatives, preparation thereof and therapeutic use thereof for diseases involving casein kinase 1 epsilon and/or casein kinase 1 delta” (SANOFI, priority 2010, dated 2016):

Target: casein kinase 1 epsilon (CK1 epsilon) (Homo sapiens (Human), UniProt P49674)
Assay: Test A: inhibitory activity on CK1 epsilon, casein phosphorylation assay on ATP-33P filter plate
Assay type: biochemical
Conditions: IC50 values or IC50 ranges (result of several experiments), ATP 10 μM final
Method: The capacity of the compounds of the invention to inhibit the phosphorylation of casein by casein kinase 1 epsilon and/or delta may be evaluated according to the procedures described in document US 2005/0 131 012.
Test A: Inhibitory Activity on CK1 Epsilon Measured by Assay on an ATP-^33P Filter Plate
The effect of the compounds on inhibition of the phosphorylation of casein by the enzyme casein kinase 1 epsilon (CK1 epsilon) is measured, using a casein assay via filtration of ATP-^33P in vitro.
Casein kinase 1 epsilon (0.58 mg/ml) is obtained via fermentation and purification processes performed according to methods that are well known to those skilled in the art, or may also be obtained from Invitrogen Corporation™ (human CK1 epsilon).
The compounds are tested at five different concentrations so as to generate IC50 values, i.e. the concentration at which a compound is capable of inhibiting the enzymatic activity by 50%, or alternatively the percentage of inhibition at a concentration of 10 micromolar.
“U”-bottomed Falcon plates are prepared by placing 5 μL of solutions of the compounds according to the invention at concentrations of 10, 1, 0.1, 0.01 or 0.001 μM in different wells. The solutions of the compounds according to the invention at these various concentrations are prepared by diluting in a test buffer (Tris 50 mM pH 7.5, MgCl2 […], DTT 2 mM and EGTA 1 mM) a stock solution in DMSO at a concentration of 10 mM. Next, 5 μL of dephosphorylated casein are added to a final concentration of 0.2 μg/μL, 20 μL of CK1 epsilon to a final concentration of 3 ng/μL, and 20 μL of ATP-^33P to a final concentration of 0.02 μCi/μL mixed with cold ATP (10 μM final—approximately 2×10^6 CPM per well). The final total test volume per well is equal to 50 μL.
The “U”-bottomed Falcon® test plate mentioned above is vortexed, and then incubated at room temperature for 2 hours. After 2 hours the reaction is stopped by adding an ice-cold solution of 65 μL of cold ATP (2 mM) prepared in test buffer.
100 μL of the reaction mixture are then transferred from the “U”-bottomed Falcon® plate into Millipore® MAPH filter plates, preimpregnated with 25 μL of ice-cold 100% TCA.
The Millipore MAPH filter plates are agitated gently and are left to stand at room temperature for at least 30 minutes to precipitate the proteins.
After 30 minutes, the filter plates are sequentially washed and filtered with 2×150 μL of 20% TCA, 2×150 μL of 10% TCA and 2×150 μL of 5% TCA (6 washes in total per plate/900 μL per well).
The plates are left to dry overnight at room temperature. Next, 40 μL of Microscint-20 Packard® scintillation liquid are added per well and the plates are closed in a leaktight manner. The radiation emitted by each well is then measured for 2 minutes in a TopCount NXT Packard® scintillation counter, in which the values of CPM/well are measured.
The percentage inhibition of the capacity of the enzyme to phosphorylate the substrate (casein) is determined for each concentration of test compound. These inhibition data expressed as percentages are used to calculate the IC50 value for each compound compared with the controls.
The kinetic studies determined the KM value for ATP as being 21 μM in this test system.
Table 2 below gives the IC50 values or the IC50 inhibition ranges (result of several experiments) for the phosphorylation of Casein Kinase 1 Epsilon for a number of compounds according to the invention.

Sequence of casein kinase 1 epsilon (CK1 epsilon) (P49674 whole entry): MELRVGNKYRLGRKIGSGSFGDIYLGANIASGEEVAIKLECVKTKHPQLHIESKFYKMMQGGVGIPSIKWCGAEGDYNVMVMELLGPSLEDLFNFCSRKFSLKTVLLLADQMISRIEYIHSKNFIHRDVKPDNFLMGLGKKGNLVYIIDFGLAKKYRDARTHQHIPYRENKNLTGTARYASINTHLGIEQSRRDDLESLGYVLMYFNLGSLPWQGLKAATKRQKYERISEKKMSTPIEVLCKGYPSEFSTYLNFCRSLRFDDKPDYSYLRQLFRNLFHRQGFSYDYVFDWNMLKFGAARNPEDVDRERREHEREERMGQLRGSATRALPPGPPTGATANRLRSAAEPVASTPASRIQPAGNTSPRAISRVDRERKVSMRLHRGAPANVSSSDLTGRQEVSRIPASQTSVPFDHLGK

Work on `CC(C)(C)NC(=O)N1CCn2c(c(C(N)=O)c(-c3ccc(-n4cccn4)cc3)c2C2CC2)C1` [Compound 31, N^2-tert-butyl-6-cyclo-propyl-7-[4-(1H-pyrazol-1-yl)phenyl]-3,4-dihydropyrrolo[1,2-a]pyrazine-2,8(1H)-dicarboxamide] yielded an IC50 of 5 to 29 nM.
With `COc1cccc(-c2c(C(N)=O)c3n(c2C2CC2)CCN(C(=O)NC(C)(C)C)C3)c1` [Compound 32, N^2-tert-butyl-6-cyclo-propyl-7-(3-methoxyphenyl)-3,4-dihydropyrrolo[1,2-a]pyrazine-2,8(1H)-dicarboxamide] the IC50 was 1 to 7 nM.
Compound `CC(C)(C)NC(=O)N1CCn2c(c(C(N)=O)c(-c3cccc(OCC4CC4)c3)c2C2CC2)C1` [Compound 33, N^2-tert-butyl-6-cyclo-propyl-7-[3-(cyclo-propylmethoxy)phenyl]-3,4-dihydropyrrolo[1,2-a]pyrazine-2,8(1H)-dicarboxamide] has an IC50 of 847 nM.
For `CC(C)(C)NC(=O)N1CCn2c(c(C(N)=O)c(-c3cccc(OC(F)(F)F)c3)c2C2CC2)C1` [Compound 35, N^2-tert-butyl-6-cyclo-propyl-7-[3-(trifluoromethoxy)phenyl]-3,4-dihydropyrrolo[1,2-a]pyrazine-2,8(1H)-dicarboxamide], the IC50 was 25 nM.
In the case of `CC(C)(C)NC(=O)N1CCn2c(c(C(N)=O)c(-c3ccc(OCC4CC4)cc3)c2C2CC2)C1` [Compound 37, N^2-tert-butyl-6-cyclo-propyl-7-[4-(cyclo-propylmethoxy)phenyl]-3,4-dihydropyrrolo[1,2-a]pyrazine-2,8(1H)-dicarboxamide], the IC50 is reported as 62 nM.
For `CCCCOc1ccc(-c2c(C(N)=O)c3n(c2C2CC2)CCN(C(=O)NC(C)(C)C)C3)cc1` [Compound 38, 7-(4-butoxyphenyl)-N^2-tert-butyl-6-cyclo-propyl-3,4-dihydropyrrolo[1,2-a]pyrazine-2,8(1H)-dicarboxamide], the IC50 was 152 nM.
`CC(C)(C)NC(=O)N1CCn2c(c(C(N)=O)c(-c3ccc(OCc4ccc(F)cc4)cc3)c2C2CC2)C1` [Compound 41, N^2-tert-butyl-6-cyclo-propyl-7-{4-[(4-fluorobenzyl)oxy]phenyl}-3,4-dihydropyrrolo[1,2-a]pyrazine-2,8(1H)-dicarboxamide] gave an IC50 of 42 nM.
Compound `CC(C)(C)NC(=O)N1CCn2c(c(C(N)=O)c(-c3ccc(OCc4ccc(F)cc4)c(Cl)c3)c2C2CC2)C1` [Compound 42, N^2-tert-butyl-7-{3-chloro-4-[(4-fluorobenzyl)oxy]phenyl}-6-cyclo-propyl-3,4-dihydropyrrolo[1,2-a]pyrazine-2,8(1H)-dicarboxamide] has an IC50 of 16 nM.
`CC(C)(C)NC(=O)N1CCn2c(c(C(N)=O)c(-c3ccc(OCC#N)cc3)c2C2CC2)C1` [Compound 43, N^2-tert-butyl-7-[4-(cyanomethoxy)phenyl]-6-cyclo-propyl-3,4-dihydropyrrolo[1,2-a]pyrazine-2,8(1H)-dicarboxamide] gave an IC50 of 24 nM.
`CC(C)(C)NC(=O)N1CCn2c(c(C(N)=O)c(-c3ccc(OC(F)(F)F)cc3)c2C2CC2)C1` [Compound 44, N^2-tert-butyl-6-cyclo-propyl-7-[4-(trifluoromethoxy)phenyl]-3,4-dihydropyrrolo[1,2-a]pyrazine-2,8(1H)-dicarboxamide] was tested, and the IC50 was 33 nM.
`CC(C)(C)NC(=O)N1CCn2c(c(C(N)=O)c(-c3ccccc3F)c2C2CC2)C1` [Compound 45, N^2-tert-butyl-6-cyclo-propyl-7-(2-fluorophenyl)-3,4-dihydropyrrolo[1,2-a]pyrazine-2,8(1H)-dicarboxamide] showed an IC50 of 12 nM.
`CC(C)(C)NC(=O)N1CCn2c(c(C(N)=O)c(-c3cccc(F)c3)c2C2CC2)C1` [Compound 46, N^2-tert-butyl-6-cyclo-propyl-7-(3-fluorophenyl)-3,4-dihydropyrrolo[1,2-a]pyrazine-2,8(1H)-dicarboxamide] gave an IC50 of 5 to 11 nM.
In the case of `CSc1ccc(-c2c(C(N)=O)c3n(c2C2CC2)CCN(C(=O)NC(C)(C)C)C3)cc1` [Compound 48, N^2-tert-butyl-6-cyclo-propyl-7-[4-(methylsulfanyl)phenyl]-3,4-dihydropyrrolo[1,2-a]pyrazine-2,8(1H)-dicarboxamide], the IC50 is reported as 1 to 2 nM.
